Reference: ChEMBL document CHEMBL5291721, “A preclinical secondary pharmacology resource illuminates target-adverse drug reaction associations of marketed drugs” (Nat Commun, 2023)

Experiments:
Adenosine receptor A3 = target: T1, Adenosine receptor A3 (Homo sapiens, UniProt P0DMS8)
T1 sequence (P0DMS8 whole entry): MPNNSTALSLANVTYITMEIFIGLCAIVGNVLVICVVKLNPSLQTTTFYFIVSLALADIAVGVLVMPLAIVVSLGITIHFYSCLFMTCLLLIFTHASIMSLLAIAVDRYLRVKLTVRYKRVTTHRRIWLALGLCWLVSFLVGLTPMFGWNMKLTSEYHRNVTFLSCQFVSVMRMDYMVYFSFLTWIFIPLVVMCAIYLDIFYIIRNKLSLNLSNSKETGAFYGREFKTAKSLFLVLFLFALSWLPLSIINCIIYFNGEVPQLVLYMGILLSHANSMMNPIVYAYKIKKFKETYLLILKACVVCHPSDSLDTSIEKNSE

[1] = target: T2, Alpha-1A adrenergic receptor (Homo sapiens, UniProt P35348); format: functional, cell-based
T2 sequence (P35348 whole entry): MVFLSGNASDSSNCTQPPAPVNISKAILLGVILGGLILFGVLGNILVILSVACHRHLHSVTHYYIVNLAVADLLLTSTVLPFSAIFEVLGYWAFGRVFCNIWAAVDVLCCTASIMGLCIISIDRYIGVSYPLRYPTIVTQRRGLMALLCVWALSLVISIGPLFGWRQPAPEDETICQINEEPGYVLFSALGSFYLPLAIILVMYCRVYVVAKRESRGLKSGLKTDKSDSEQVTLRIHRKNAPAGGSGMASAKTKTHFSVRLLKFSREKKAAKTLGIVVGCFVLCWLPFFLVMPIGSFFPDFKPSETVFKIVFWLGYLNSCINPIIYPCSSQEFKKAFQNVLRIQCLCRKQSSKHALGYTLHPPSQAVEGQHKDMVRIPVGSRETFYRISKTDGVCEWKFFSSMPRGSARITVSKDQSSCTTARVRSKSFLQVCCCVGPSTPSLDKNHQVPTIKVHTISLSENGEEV

[2] = target: T3, Alpha-2A adrenergic receptor (Homo sapiens, UniProt P08913)
T3 sequence (P08913 whole entry): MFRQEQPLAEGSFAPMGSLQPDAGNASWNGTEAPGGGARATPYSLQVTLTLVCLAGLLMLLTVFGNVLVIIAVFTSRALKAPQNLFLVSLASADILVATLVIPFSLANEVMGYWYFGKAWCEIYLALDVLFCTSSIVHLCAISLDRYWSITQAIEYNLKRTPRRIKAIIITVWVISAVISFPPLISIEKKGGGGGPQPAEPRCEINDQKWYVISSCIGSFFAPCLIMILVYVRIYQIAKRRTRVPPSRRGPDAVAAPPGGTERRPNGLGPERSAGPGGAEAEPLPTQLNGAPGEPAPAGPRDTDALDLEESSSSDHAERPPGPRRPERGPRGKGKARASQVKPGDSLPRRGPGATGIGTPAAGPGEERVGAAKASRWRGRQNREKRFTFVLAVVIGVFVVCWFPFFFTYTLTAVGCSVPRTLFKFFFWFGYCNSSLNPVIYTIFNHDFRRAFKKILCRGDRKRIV

[3] = target: T4, Muscarinic acetylcholine receptor M2 (Homo sapiens, UniProt P08172)
T4 sequence (P08172 whole entry): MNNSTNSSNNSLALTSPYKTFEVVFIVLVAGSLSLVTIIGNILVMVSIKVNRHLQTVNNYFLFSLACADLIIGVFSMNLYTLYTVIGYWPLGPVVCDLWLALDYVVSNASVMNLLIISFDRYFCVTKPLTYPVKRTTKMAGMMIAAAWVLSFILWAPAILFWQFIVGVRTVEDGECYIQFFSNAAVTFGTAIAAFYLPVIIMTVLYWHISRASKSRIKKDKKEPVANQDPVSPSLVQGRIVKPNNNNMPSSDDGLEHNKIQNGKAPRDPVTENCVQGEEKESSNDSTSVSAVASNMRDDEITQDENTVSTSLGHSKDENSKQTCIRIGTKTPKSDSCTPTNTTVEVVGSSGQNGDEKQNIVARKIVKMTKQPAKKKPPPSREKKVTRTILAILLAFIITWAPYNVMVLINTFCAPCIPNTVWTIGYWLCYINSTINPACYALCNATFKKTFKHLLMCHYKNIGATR

D(3) dopamine receptor = D(3) dopamine receptor (Homo sapiens, UniProt P35462)
D(3) dopamine receptor, sequence (P35462 whole entry): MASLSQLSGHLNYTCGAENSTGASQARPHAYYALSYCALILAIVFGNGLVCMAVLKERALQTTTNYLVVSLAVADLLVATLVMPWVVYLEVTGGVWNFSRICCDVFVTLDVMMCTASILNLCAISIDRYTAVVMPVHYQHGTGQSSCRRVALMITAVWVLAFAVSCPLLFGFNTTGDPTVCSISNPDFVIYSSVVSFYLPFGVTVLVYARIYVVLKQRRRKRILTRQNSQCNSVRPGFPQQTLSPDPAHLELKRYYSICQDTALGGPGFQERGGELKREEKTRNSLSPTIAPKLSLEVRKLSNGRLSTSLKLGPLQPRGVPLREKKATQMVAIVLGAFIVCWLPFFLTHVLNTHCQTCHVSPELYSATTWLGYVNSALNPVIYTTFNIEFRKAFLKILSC

[4] = target: T5, 5-hydroxytryptamine receptor 1A (Homo sapiens, UniProt P08908)
T5 sequence (P08908 whole entry): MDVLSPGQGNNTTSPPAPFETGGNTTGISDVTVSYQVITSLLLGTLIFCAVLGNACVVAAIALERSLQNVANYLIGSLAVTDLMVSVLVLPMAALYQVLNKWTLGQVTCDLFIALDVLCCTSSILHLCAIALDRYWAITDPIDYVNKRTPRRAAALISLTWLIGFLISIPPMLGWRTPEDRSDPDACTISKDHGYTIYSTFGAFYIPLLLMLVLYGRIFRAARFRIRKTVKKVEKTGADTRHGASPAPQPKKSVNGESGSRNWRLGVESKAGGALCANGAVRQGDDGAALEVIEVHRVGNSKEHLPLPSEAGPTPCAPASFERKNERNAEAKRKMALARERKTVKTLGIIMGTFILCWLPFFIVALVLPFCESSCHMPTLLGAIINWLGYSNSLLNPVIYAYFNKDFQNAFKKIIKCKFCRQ

[5] = target: Voltage-gated inwardly rectifying potassium channel KCNH2 (Homo sapiens, UniProt Q12809); format: functional; conditions: read-out: AC50
Voltage-gated inwardly rectifying potassium channel KCNH2, sequence (Q12809 whole entry): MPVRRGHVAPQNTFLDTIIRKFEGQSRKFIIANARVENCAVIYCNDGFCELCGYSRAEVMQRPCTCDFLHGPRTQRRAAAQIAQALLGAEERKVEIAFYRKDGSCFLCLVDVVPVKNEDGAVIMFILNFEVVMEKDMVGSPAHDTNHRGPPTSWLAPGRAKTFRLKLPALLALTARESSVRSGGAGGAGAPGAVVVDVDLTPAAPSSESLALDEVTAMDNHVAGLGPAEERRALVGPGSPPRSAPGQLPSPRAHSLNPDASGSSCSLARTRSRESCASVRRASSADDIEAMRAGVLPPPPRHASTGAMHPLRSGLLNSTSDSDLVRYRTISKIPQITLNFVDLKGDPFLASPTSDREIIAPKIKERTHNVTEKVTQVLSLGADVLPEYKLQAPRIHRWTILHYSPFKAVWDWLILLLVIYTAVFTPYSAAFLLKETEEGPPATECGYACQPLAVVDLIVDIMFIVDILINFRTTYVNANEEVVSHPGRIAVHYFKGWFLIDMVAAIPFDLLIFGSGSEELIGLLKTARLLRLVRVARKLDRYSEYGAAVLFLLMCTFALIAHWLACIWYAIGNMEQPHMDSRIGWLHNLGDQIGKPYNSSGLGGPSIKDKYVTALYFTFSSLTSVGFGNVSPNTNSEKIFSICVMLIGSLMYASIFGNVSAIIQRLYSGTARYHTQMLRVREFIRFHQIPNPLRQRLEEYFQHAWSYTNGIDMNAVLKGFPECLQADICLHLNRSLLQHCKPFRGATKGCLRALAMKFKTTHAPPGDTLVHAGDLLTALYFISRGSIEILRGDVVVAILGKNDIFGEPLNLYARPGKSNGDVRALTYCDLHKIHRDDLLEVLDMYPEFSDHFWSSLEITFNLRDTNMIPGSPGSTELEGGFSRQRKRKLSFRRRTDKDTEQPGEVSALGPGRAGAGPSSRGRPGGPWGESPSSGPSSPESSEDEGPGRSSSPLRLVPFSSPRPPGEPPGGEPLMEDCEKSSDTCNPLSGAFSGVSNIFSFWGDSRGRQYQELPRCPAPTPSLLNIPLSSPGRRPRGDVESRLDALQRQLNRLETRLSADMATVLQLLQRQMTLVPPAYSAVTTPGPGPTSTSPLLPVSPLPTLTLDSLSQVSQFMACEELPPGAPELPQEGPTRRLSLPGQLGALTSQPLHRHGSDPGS

[6] = target: cGMP-inhibited 3',5'-cyclic phosphodiesterase 3A (Homo sapiens, UniProt Q14432); format: functional
cGMP-inhibited 3',5'-cyclic phosphodiesterase 3A, sequence (Q14432 whole entry): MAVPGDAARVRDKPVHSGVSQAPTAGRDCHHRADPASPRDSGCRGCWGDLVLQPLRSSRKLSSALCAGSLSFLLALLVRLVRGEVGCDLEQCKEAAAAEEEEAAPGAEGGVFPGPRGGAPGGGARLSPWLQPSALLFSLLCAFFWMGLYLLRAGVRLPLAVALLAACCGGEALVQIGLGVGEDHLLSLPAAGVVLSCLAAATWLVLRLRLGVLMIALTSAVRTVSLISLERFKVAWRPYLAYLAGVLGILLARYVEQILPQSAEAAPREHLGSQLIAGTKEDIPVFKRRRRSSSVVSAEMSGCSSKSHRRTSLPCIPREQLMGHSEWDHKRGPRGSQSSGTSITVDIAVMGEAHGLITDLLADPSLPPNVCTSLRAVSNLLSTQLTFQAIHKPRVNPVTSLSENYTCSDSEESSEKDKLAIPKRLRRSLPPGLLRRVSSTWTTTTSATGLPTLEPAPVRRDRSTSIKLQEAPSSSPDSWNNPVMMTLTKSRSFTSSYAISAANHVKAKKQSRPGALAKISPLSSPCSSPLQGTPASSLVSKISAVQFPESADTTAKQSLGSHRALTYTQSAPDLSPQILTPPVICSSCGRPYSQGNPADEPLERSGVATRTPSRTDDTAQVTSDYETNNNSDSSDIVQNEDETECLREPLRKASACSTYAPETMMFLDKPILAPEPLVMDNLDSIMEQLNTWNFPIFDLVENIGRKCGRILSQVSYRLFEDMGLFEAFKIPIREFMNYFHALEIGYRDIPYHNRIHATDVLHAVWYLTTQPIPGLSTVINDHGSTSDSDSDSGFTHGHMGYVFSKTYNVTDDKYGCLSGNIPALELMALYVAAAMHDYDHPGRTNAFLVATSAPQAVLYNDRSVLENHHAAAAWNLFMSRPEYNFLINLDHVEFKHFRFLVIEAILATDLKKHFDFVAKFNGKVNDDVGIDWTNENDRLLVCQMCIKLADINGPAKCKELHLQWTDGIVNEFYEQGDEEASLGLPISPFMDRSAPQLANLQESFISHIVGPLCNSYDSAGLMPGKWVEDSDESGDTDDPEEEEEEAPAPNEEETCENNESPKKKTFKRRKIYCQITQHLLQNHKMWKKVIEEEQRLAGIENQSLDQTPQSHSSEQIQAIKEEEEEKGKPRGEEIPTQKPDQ

[7] = target: 3',5'-cyclic-AMP phosphodiesterase 4A (Homo sapiens, UniProt P27815); format: functional
3',5'-cyclic-AMP phosphodiesterase 4A, sequence (P27815 whole entry): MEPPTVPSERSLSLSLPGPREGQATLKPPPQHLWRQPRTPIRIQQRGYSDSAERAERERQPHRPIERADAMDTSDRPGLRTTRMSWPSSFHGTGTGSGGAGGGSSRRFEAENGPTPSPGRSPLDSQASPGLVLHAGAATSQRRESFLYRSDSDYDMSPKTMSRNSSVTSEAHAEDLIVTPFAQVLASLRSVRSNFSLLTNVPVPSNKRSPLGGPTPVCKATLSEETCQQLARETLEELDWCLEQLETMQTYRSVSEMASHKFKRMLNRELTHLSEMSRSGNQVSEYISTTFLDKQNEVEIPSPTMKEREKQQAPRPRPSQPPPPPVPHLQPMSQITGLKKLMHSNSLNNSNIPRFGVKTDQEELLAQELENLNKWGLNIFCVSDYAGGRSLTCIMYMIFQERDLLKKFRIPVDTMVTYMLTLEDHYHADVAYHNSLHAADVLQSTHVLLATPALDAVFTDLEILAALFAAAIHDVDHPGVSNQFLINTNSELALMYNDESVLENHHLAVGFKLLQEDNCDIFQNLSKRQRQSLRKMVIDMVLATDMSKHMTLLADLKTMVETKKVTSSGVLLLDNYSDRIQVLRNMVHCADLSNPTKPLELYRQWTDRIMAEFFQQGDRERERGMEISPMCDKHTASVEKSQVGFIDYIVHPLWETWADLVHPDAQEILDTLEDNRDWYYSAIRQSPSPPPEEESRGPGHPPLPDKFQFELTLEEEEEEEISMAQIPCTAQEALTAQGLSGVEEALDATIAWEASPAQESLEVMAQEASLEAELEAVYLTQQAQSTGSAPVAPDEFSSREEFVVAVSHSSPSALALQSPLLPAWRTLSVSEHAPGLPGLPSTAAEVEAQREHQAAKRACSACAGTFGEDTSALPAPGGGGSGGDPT

[8] = target: Prostaglandin G/H synthase 1 (Homo sapiens, UniProt P23219); format: functional
Prostaglandin G/H synthase 1, sequence (P23219 whole entry): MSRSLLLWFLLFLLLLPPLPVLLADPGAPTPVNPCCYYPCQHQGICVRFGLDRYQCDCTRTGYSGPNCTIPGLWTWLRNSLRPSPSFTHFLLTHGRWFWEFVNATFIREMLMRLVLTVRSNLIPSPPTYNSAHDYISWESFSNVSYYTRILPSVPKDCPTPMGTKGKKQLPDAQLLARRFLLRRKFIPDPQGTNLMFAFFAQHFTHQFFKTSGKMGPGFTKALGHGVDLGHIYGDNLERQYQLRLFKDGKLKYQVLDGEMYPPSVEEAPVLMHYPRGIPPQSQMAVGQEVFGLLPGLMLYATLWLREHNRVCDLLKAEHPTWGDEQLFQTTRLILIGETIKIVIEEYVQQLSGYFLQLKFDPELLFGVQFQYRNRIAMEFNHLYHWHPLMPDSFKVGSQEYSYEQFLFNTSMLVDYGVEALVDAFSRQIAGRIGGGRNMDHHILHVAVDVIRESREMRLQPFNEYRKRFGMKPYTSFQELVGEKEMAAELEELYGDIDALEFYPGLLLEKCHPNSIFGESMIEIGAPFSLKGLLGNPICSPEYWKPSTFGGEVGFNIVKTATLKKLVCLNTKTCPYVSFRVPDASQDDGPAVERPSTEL

[9] = target: Sodium-dependent dopamine transporter (Homo sapiens, UniProt Q01959)
Sodium-dependent dopamine transporter, sequence (Q01959 whole entry): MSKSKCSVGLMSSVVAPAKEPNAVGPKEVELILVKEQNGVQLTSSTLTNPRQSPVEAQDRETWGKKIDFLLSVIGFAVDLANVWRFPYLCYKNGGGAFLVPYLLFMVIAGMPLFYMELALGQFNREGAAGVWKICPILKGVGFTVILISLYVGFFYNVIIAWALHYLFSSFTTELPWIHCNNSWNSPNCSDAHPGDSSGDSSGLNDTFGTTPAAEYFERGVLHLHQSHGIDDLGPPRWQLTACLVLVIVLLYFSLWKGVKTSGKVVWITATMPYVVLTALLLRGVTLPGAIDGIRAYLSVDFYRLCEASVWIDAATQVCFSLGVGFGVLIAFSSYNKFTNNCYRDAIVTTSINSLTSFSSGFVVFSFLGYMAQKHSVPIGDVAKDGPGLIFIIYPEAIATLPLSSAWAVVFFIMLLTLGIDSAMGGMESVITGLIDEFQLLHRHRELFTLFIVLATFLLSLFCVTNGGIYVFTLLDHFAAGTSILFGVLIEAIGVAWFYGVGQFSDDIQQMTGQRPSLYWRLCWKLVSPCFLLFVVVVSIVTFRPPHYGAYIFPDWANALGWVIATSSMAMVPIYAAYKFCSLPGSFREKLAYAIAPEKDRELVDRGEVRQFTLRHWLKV

Thromboxane A2 receptor = target: T6, Thromboxane A2 receptor (Homo sapiens, UniProt P21731); format: functional, cell-based
T6 sequence (P21731 whole entry): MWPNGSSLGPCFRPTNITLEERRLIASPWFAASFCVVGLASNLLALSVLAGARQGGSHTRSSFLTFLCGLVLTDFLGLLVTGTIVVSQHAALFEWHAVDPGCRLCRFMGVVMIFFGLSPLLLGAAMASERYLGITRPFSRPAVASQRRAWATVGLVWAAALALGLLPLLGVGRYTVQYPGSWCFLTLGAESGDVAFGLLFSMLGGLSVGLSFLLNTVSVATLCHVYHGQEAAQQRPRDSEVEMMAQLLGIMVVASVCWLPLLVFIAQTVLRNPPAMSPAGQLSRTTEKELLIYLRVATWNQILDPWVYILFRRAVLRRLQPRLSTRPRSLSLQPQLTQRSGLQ
Also: assay procedure not described here.

Row | SMILES | AC50 (Adenosine receptor A3) [µM] | AC50 [1] [µM] | AC50 [2] [µM] | AC50 [3] [µM] | AC50 (D(3) dopamine receptor) [µM] | AC50 [4] [µM] | AC50 [5] [µM] | AC50 [6] [µM] | AC50 [7] [µM] | AC50 [8] [µM] | AC50 [9] [µM] | AC50 (Thromboxane A2 receptor) [µM]
1 | Cc1ncc(CO)c(CO)c1O [PYRIDOXINE] | > 30 | > 30 | > 30 | > 30 | > 30 | > 30 | > 30 | > 30 | > 30 | > 3 | > 30 | > 30
2 | O=C1Nc2ccccc2C1(c1ccc(O)cc1)c1ccc(O)cc1 [OXYPHENISATINE] | 5.01 | > 30 | > 30 | 11.9 | > 30 | > 30 | 10.1 | > 30 | > 30 | > 30 | > 30 | > 30
3 | COc1cccc2c1C(=O)c1c(O)c3c(c(O)c1C2=O)C[C@@](O)(C(=O)CO)C[C@@H]3O[C@H]1C[C@H](N)[C@H](O)[C@H](C)O1 [DOXORUBICIN] | > 30 | > 30 | > 30 | > 30 | > 30 | > 30 | 5.63 | > 30 | > 30 | 15.5 | > 30 | > 3
4 | CN1C(C(=O)Nc2ccccn2)=C(OC(=O)/C=C/c2ccccc2)c2ccccc2S1(=O)=O [PIROXICAM CINNAMATE] | > 30 | > 30 | > 30 | > 30 | > 30 | 13.4 | > 30 | > 30 | > 30 | > 30 | > 30 | > 30
5 | [H]/N=C(/N)NS(=O)(=O)c1ccc(N)cc1 [SULFAGUANIDINE] | > 30 | > 30 | > 30 | > 30 | > 30 | > 30 | > 30 | > 30 | > 30 | > 30 | > 30 | > 30
6 | N[C@@H](Cc1ccc(N(CCCl)CCCl)cc1)C(=O)O | > 30 | > 30 | 11.2 | 13.6 | 24.8 | > 30 | 4.8 | > 30 | > 30 | 6.82 | 16.9 | > 30
7 | CC(C)(Oc1ccc(C(=O)c2ccc(Cl)cc2)cc1)C(=O)O [FENOFIBRIC ACID] | > 30 | > 30 | > 30 | > 30 | > 30 | > 30 | > 30 | > 30 | > 3 | > 30 | > 30 | > 30
8 | CC(C)=CCC/C(C)=C/CC/C(C)=C/CC/C(C)=C/CC1=C(C)C(=O)c2ccccc2C1=O [MENATETRENONE] | 4.72 | > 30 | > 10 | > 30 | 2.91 | 22.5 | > 30 | 5.09 | 8.53 | 0.78 | > 30 | > 30
9 | NC(=O)N/N=C/c1ccc([N+](=O)[O-])o1 [NITROFURAZONE] | > 30 | > 30 | > 30 | > 30 | > 30 | > 30 | > 30 | 29.8 | > 30 | > 30 | > 30 | > 30
10 | Cc1cccc(C)c1NC(=O)CN(CC(=O)O)CC(=O)O [LIDOFENIN] | > 30 | > 30 | > 30 | > 30 | > 30 | > 30 | > 30 | > 30 | > 30 | > 30 | > 30 | > 30
11 | Nc1ccn(C[C@@H](CO)OCP(=O)(O)O)c(=O)n1 [CIDOFOVIR] | > 30 | > 30 | > 30 | > 30 | > 30 | > 30 | > 30 | > 30 | > 30 | > 30 | > 30 | > 30
12 | C[C@H]1C[C@H]2[C@@H]3CCC4=CC(=O)C=C[C@]4(C)[C@@]3(F)[C@@H](O)C[C@]2(C)[C@@]1(O)C(=O)CO [BETAMETHASONE] | > 30 | > 30 | > 30 | > 30 | > 30 | > 30 | > 30 | > 30 | > 30 | > 30 | > 30 | > 30
13 | CO[C@H]1/C=C/O[C@@]2(C)Oc3c(C)c(O)c4c(c3C2=O)C2=NC3(CCN(CC(C)C)CC3)NC2=C(NC(=O)/C(C)=C\C=C\[C@H](C)[C@H](O)[C@@H](C)[C@@H](O)[C@@H](C)[C@H](OC(C)=O)[C@@H]1C)C4=O [RIFABUTIN] | > 30 | > 30 | > 30 | > 30 | > 30 | > 30 | > 30 | > 30 | > 30 | 17.4 | > 30 | > 30
